Source: patent publication US11865176B2, “Compositions and methods of modulating anti-tumor immunity” (Dana-Farber Cancer Institute, Inc., priority 2016, dated 2024)
Several values for one entry are separate records, joined by “and”; a condition that tells them apart may be missing. Identical values can stand only once. Like-named read-outs stand apart in the source and are kept apart here.

Test system: PD-1-overexpressing Jurkat cells
Test: Small molecule screen: IL2 secretion (AlphaLISA) from stimulated PD-1-overexpressing Jurkat cells
Format: cell-based, human
Description: PD-1-overexpressing Jurkat cells were plated at a concentration of 100,000 cells/well in a total volume of 80 μl. […] Dynabeads conjugated to α-CD3, α-CD28, and α-PD-1 antibodies were added in 20 for a final assay volume of 100 with a final compound concentration of 3.3 μM and an 8:1 bead:cell ratio. Beads were conjugated to α-CD3/α-CD28/control IgG and added to wells containing DMSO-treated cells as a positive control, while beads conjugated to α-CD3/α-CD28/α-PD1 were added to wells containing DMSO-treated cells as a negative control. Supernatants from each well were analyzed for IL2 levels by AlphaLISA (Perkin Elmers) according to the manufacturer's protocol. Average and standard deviation values were calculated from the PD-1 controls (DMSO-treated cells stimulated with α-CD3/α-CD28/α-PD-1 beads); hits were defined as compounds scoring at least 3 standard deviations from the mean of the controls.
In addition to known negative regulators of IL-2 production (e.g. glycogen synthase kinase-3α/β (GSK3α/β) (24,25)), this screen identified cyclin-dependent kinases 4 and 6 inhibitors (CDK4/6i) as top hits (Table 1).

[1] = IL2 level, replicate 1, 3.3 μM compound, α-CD3/α-CD28/α-PD-1 beads
[2] = IL2 level, replicate 2, 3.3 μM compound, α-CD3/α-CD28/α-PD-1 beads
[3] = average of replicate Z scores, 3.3 μM compound

O=C1NCCc2[nH]c(-c3ccnc(-c4cnc5ccccc5c4)c3)cc21 [MK-2 Inhibitor III]
Zscore_1 [1]: −4.419
Zscore_2 [2]: −7.061
Zscore_AVG [3]: −5.74

Indirubin-3′-monoxime
Zscore_1 [1]: 2.085
Zscore_2 [2]: 1.884
Zscore_AVG [3]: 1.985

O=C1Nc2cc(Br)ccc2/C1=C1/Nc2ccccc2/C1=N\O [GSK-3 Inhibitor IX]
Zscore_1 [1]: 25.07
Zscore_2 [2]: 34.88
Zscore_AVG [3]: 29.98

O=C(Nc1cccc(Nc2cc(Nc3cccc(C(F)(F)F)c3)ncn2)c1)C1CC1 [EGFR Inhibitor]
Zscore_1 [1]: 2.026
Zscore_2 [2]: 1.568
Zscore_AVG [3]: 1.797

Oc1cccc(-c2nc(N3CCOCC3)c3oc4ncccc4c3n2)c1 [PI-103]
Zscore_1 [1]: −0.718
Zscore_2 [2]: 0.8433
Zscore_AVG [3]: 0.06265

COc1cc2ncn(-c3cc(OCc4ccccc4S(C)(=O)=O)c(C#N)s3)c2cc1OC [IKK-3 Inhibitor IX]
Zscore_1 [1]: 3.754
Zscore_2 [2]: 2.454
Zscore_AVG [3]: 3.104

NS(=O)(=O)c1ccc(N/N=C2\C(=O)Nc3ccc(Br)cc32)cc1 [Cdk2 Inhibitor II]
Zscore_1 [1]: −0.2096
Zscore_2 [2]: −0.6424
Zscore_AVG [3]: −0.426

O=c1cc(-c2cccc3c2Sc2ccccc2S3)oc(N2CCOCC2)c1 [ATM Kinase Inhibitor]
Zscore_1 [1]: 1.379
Zscore_2 [2]: 4.382
Zscore_AVG [3]: 2.881

O=C(Nc1cc(Cl)cc2c1[nH]c1cnccc12)c1cccnc1 [IKK Inhibitor X]
Zscore_1 [1]: −4.959
Zscore_2 [2]: −5.349
Zscore_AVG [3]: −5.154

NC(=O)c1ccc2nc(-c3ccc(Oc4ccc(Cl)cc4)cc3)[nH]c2c1 [Chk2 Inhibitor II]
Zscore_1 [1]: 2.673
Zscore_2 [2]: 1.942
Zscore_AVG [3]: 2.307

N#C/C(=C(/N)Sc1ccc(N)cc1)c1ccccc1C(F)(F)F [MEK 1/2 Inhibitor]
Zscore_1 [1]: −4.769
Zscore_2 [2]: −6.395
Zscore_AVG [3]: −5.582

Cn1nc2c3c(cccc31)C(=O)c1ccccc1-2 [JNK Inhibitor, Negative Control]
Zscore_1 [1]: 0.1027
Zscore_2 [2]: 1.046
Zscore_AVG [3]: 0.5746

Ic1cccc(CSc2nnc(-c3ccncc3)o2)c1 [GSK-3b Inhibitor II]
Zscore_1 [1]: −2.376
Zscore_2 [2]: −0.4154
Zscore_AVG [3]: −1.396

O=C1NC(=O)c2c1c1c3ccccc3n3c1c1c2c2ccccc2n1C1CCC3O1 [SB 218078]
Zscore_1 [1]: −0.8723
Zscore_2 [2]: −1.561
Zscore_AVG [3]: −1.217

CC(C)[C@H](CO)Nc1nc(Nc2cccc(Cl)c2)c2ncn(C(C)C)c2n1 [Purvalanol A]
Zscore_1 [1]: −3.126
Zscore_2 [2]: 0.37
Zscore_AVG [3]: −1.378

CCCCc1c(-c2ccc(O)cc2)[nH]c2nccnc12 [Aloisine A, RP107]
Zscore_1 [1]: −3.301
Zscore_2 [2]: −1.322
Zscore_AVG [3]: −2.311

CC(C)N(CCC(=O)c1ccc2ccccc2c1)Cc1ccccc1 [JAK3 Inhibitor IV]
Zscore_1 [1]: 0.2022
Zscore_2 [2]: 0.908
Zscore_AVG [3]: 0.5551

O=C(Nc1nc2ccccc2n1CCN1CCOCC1)c1cccc([N+](=O)[O-])c1 [IRAK-1/4 Inhibitor]
Zscore_1 [1]: −0.5038
Zscore_2 [2]: −1.963
Zscore_AVG [3]: −1.233

CN(C)S(=O)(=O)c1ccc2c(c1)/C(=C/c1cc3c([nH]1)CCCC3)C(=O)N2 [SU6656]
Zscore_1 [1]: 1.733
Zscore_2 [2]: 1.333
Zscore_AVG [3]: 1.533

Cc1cc2ncc(-c3ccccc3)nc2cc1C [AG 1295]
Zscore_1 [1]: −0.2372
Zscore_2 [2]: −3.097
Zscore_AVG [3]: −1.667

Cdk Inhibitor, p35
Zscore_1 [1]: −1.994
Zscore_2 [2]: −1.733
Zscore_AVG [3]: −1.864

COc1cc2ncnc(Nc3ccc(NC(=O)c4ccccc4)cc3)c2cc1OC [Aurora Kinase Inhibitor II]
Zscore_1 [1]: −0.6024
Zscore_2 [2]: 2.958
Zscore_AVG [3]: 1.178

COc1cc2nccc(Oc3ccc(NC(=S)NC(=O)c4ccccc4C)cc3)c2cc1OC [PDGF RTK Inhibitor]
Zscore_1 [1]: −3.239
Zscore_2 [2]: −6.099
Zscore_AVG [3]: −4.669

CC[C@@H](CO)Nc1nc(NCc2ccccc2)c2ncn(C(C)C)c2n1 (single isomer, unassigned) [Roscovitine, (S)-Isomer]
Zscore_1 [1]: −2.928
Zscore_2 [2]: −1.279
Zscore_AVG [3]: −2.103

Oc1cccc(-c2nc(N3CCOCC3)c3sccc3n2)c1 [PI 3-Kα Inhibitor IV]
Zscore_1 [1]: 1.287
Zscore_2 [2]: 0.7223
Zscore_AVG [3]: 1.005

Cc1ncc2ccccc2c1C#N [4-Cyano-3-methylisoquinoline]
Zscore_1 [1]: −0.7566
Zscore_2 [2]: 0.1385
Zscore_AVG [3]: −0.3091

Cc1nc(-c2ccccc2)c(-c2ccncc2)o1 [SC-68376]
Zscore_1 [1]: −1.404
Zscore_2 [2]: −0.2868
Zscore_AVG [3]: −0.8452

Nc1ncnc2n[nH]c(Nc3ccc(F)cc3)c12 [MNK1 Inhibitor]
Zscore_1 [1]: −2.022
Zscore_2 [2]: −0.3911
Zscore_AVG [3]: −1.206

O=C1Nc2ccc(I)cc2/C1=C1/Nc2ccccc2/C1=N\O [Indirubin-3′-monoxime, 5-Iodo-]
Zscore_1 [1]: 10.18
Zscore_2 [2]: 17.16
Zscore_AVG [3]: 13.67

COc1cc2ncc(-c3ccccc3)nc2cc1OC [AG 1296]
Zscore_1 [1]: 0.5275
Zscore_2 [2]: −0.8562
Zscore_AVG [3]: −0.1643

Scytonemin, Lyngbya sp.
Zscore_1 [1]: 0.1217
Zscore_2 [2]: −0.3399
Zscore_AVG [3]: −0.1091

CN1C(=O)/C(=C2\Nc3ccccc3\C2=N/O)c2ccc(Br)cc21 [GSK-3 Inhibitor IX, Control, MeBIO]
Zscore_1 [1]: 1.104
Zscore_2 [2]: 1.769
Zscore_AVG [3]: 1.437

CN([C@@H](Cc1ccc(OS(=O)(=O)c2cccc3cnccc23)cc1)C(=O)N1CCN(c2ccccc2)CC1)S(=O)(=O)c1cccc2cnccc12 [KN-62]
Zscore_1 [1]: −0.2488
Zscore_2 [2]: −0.8434
Zscore_AVG [3]: −0.5461

CO[C@H]1[C@@H](OC)C[C@H](C)[C@@H](OC)C2=CC(=O)C=C(NC(=O)/C(C)=C/C=C\[C@H](OC)[C@@H](OC(N)=O)/C(C)=C/[C@@H]1C)C2=O [Herbimycin A, Streptomyces sp.]
Zscore_1 [1]: 5.643
Zscore_2 [2]: 3.663
Zscore_AVG [3]: 4.653

Oc1ccc(Nc2nc(-c3ccc(Cl)cc3)cs2)cc1 [Sphingosine Kinase Inhibitor]
Zscore_1 [1]: −3.806
Zscore_2 [2]: −4.154
Zscore_AVG [3]: −3.98

Cc1ccc(S(=O)(=O)/C=C/C#N)cc1 [BAY 11-7082]
Zscore_1 [1]: −3.877
Zscore_2 [2]: −4.461
Zscore_AVG [3]: −4.169

CCOc1nc(NC(=O)Cc2cc(OC)ccc2OC)cc(N)c1C#N [JNK Inhibitor VIII]
Zscore_1 [1]: −1.284
Zscore_2 [2]: −2.969
Zscore_AVG [3]: −2.126

Nc1ncnc2c1c(-c1ccc(Oc3ccccc3)cc1)cn2C1CCCC1 [Lck Inhibitor]
Zscore_1 [1]: −8.467
Zscore_2 [2]: −8.924
Zscore_AVG [3]: −8.695

CC[C@@H](CO)Nc1nc(NCc2ccc(-c3ccccn3)cc2)c2ncn(C(C)C)c2n1 (single isomer, unassigned) [CR8, (S)-Isomer]
Zscore_1 [1]: −10.2
Zscore_2 [2]: −10.59
Zscore_AVG [3]: −10.39

CC(C)c1nn(-c2c(Cl)cccc2Cl)c2nc(Cc3ccc(OCCO)cc3)[nH]c(=O)c12 [Cdk/Crk Inhibitor]
Zscore_1 [1]: −10.43
Zscore_2 [2]: −11.89
Zscore_AVG [3]: −11.16

COc1nccc(-c2c(-c3ccc(F)cc3)ncn2C2CCC(O)CC2)n1 (stereo not drawn) [SB 239063]
Zscore_1 [1]: −0.08397
Zscore_2 [2]: 1.041
Zscore_AVG [3]: 0.4785

COc1cc(SC)ccc1C(=O)N1CCC(Cc2ccccc2)CC1 [p38 MAP Kinase Inhibitor VI, JX401]
Zscore_1 [1]: −0.3753
Zscore_2 [2]: −0.9241
Zscore_AVG [3]: −0.6497

O=C(Nc1cccc(Nc2nccc(Nc3cccc(C(F)(F)F)c3)n2)c1)C1CC1 [Aurora Kinase Inhibitor III]
Zscore_1 [1]: 7.108 and 2.737
Zscore_2 [2]: 6.482 and −0.8139
Zscore_AVG [3]: 6.795 and 0.9614

COc1ccc(Cl)cc1NC(=O)Nc1cc(C)nc2ccccc12 [IGF-1R Inhibitor II]
Zscore_1 [1]: 0.516
Zscore_2 [2]: −0.987
Zscore_AVG [3]: −0.2355

O=S(=O)(c1c(O)c(Cl)cc(Cl)c1Cl)c1c(O)c(Cl)cc(Cl)c1Cl [p38 MAP Kinase Inhibitor IV]
Zscore_1 [1]: −0.6495
Zscore_2 [2]: 0.005311
Zscore_AVG [3]: −0.3221

Cc1nc(N)sc1-c1ccnc(Nc2cccc([N+](=O)[O-])c2)n1 [Cdk2/9 Inhibitor]
Zscore_1 [1]: −10.43
Zscore_2 [2]: −10.59
Zscore_AVG [3]: −10.51

Cl.O=S(=O)(c1cccc2c(I)cccc12)N1CCCNCC1 [ML-7, Hydrochloride]
Zscore_1 [1]: 2.906
Zscore_2 [2]: 0.08811
Zscore_AVG [3]: 1.497

O=C(Nc1ccncc1)Nc1c(Cl)cc(Cl)cc1Cl [Rho Kinase Inhibitor II]
Zscore_1 [1]: −1.746
Zscore_2 [2]: −1.88
Zscore_AVG [3]: −1.813

O=c1c(-c2ccc(F)cc2)c(-c2ccncc2)[nH]n1-c1ccc(Cl)cc1 [p38 MAP Kinase Inhibitor]
Zscore_1: −0.7181
Zscore_2: −1.986
Zscore_AVG: −1.352
